Assay [1] has as its target T1, human SLC6A19 (Homo sapiens, UniProt Q695T7).
T1 construct: expressed in transfected cells
T1 sequence (Q695T7 1-634): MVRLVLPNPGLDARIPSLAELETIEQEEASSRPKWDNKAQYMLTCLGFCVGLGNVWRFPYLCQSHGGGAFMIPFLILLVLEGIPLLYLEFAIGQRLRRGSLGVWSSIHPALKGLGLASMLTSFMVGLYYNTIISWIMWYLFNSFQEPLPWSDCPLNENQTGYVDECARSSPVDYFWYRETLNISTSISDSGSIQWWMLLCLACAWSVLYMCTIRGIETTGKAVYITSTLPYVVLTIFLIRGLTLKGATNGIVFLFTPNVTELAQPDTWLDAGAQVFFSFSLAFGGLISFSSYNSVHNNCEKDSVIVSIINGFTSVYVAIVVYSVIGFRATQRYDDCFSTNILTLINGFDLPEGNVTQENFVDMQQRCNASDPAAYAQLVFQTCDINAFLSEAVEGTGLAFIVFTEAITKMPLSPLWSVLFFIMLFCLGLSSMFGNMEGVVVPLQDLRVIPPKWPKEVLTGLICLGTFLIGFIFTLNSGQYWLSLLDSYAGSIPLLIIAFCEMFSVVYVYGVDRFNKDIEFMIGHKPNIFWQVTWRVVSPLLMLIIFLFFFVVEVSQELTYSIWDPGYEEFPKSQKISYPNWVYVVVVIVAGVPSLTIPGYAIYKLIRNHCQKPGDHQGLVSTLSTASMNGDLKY
T1 sequence (Q9HBJ8 15-222 partner): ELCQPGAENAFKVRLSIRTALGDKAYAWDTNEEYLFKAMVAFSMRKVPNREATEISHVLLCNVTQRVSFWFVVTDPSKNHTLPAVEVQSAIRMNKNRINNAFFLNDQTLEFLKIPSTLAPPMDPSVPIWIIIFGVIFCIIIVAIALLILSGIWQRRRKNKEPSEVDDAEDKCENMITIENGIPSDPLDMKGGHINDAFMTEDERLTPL
In words: Example B-1: L-[3H]leucine uptake, liquid scintillation, in CHO cells with doxycycline-inducible expression of human SLC6A19 and TMEM27. It counts as cell-based. As to conditions: read-out: SLC6A19_Radioligand Uptake Assay IC50. The protocol:
CHO cells with doxycycline-inducible expression of human SLC6A19 and TMEM27 were maintained in T150 cell culture treated flasks using cell culture media, which consisted of 1×DMEM/F12 (Gibco, 11330057), 10% Tet System-Approved FBS (Gibco, A4736401), 100 U/mL Penicillin-Streptomycin (Gibco, 15140122), 1×GlutaMAX™ Supplement (Gibco, 35050061), 1 mM Sodium Pyruvate (Gibco, 11360070), 1.1 mg/mL Sodium Bicarbonate (Gibco, 25080094), 5 μg/mL Blasticidin (InvivoGen, ant-bl-1), 150 μg/mL Hygromycin B Gold (InvivoGen, ant-hg-5), and 500 μg/mL G418 (Sigma-Aldrich, G8168-100 mL). In preparation for the assay, this media was aspirated and 5 mL of TryμLE™ Express Enzyme (Gibco, 12605010) was added to each flask to initiate cell dissociation. The flasks were then incubated (humidified, 37° C. with 5% CO2) for 2 minutes. After incubation, 10 mL of pre-warmed cell culture media was added to each flask. The cell suspension was collected and centrifuged for 5 minutes at 200xg.
The supernatant was aspirated and the pellet was resuspended in 5 mL pre-warmed cell culture media. The resuspended cells were counted using the Countess Cell Counting Chamber (Invitrogen) and the cell concentration of the suspension was readjusted to 1 million live cells/mL using pre-warmed cell culture media. 25 uL/well (25,000 cells/well) of readjusted cell suspension was dispensed into Poly-D-Lysine 384-well white/clear plates (Corning, 354660) using a MultiDrop Combi (Thermo Electron Corp). To induce expression of Human SLC6A19 and TMEM27, 25 uL/well of cell culture media containing 2 μg/mL doxycycline was added to the first 23 columns of each plate resulting in a final concentration of […] doxycycline. 25 μL/well of cell culture media was added to the last column of each plate, to act as negative control wells for Human SLC6A19 and TMEM27 expression. Assay plates were then incubated (humidified, 37° C. with 5% CO2) for 18 hours. After incubation, the media was aspirated and the wells were washed 4 times with pre-warmed HBSS (Sigma-Aldrich, H8264-1L) using an Apricot S-Pipette S2 (Apricot Designs), such that 5 uL/well HBSS was remaining at the end of each wash. […] At this step, the final in-well DMSO concentration in the assay plate is 0.5%. All compounds were plated in a duplicate 8-point dilution series that consisted of 3-fold dilutions. […] Afterwards, 15 uL/well of 3.2 mM hot:cold leucine solution (1:15000 ratio of L-[3,4,5-3H(N)] Leucine (Perkin Elmer, NET460001MC) to L-Leucine (Sigma-Aldrich, L8912-25G) diluted with HBSS (Sigma-Aldrich, H8264-1L)) was added using the Viaflo 384 (Integra), for a final concentration of 1.6 mM hot:cold leucine solution. The plates were then incubated (humidified, 37° C. with 5% CO2) for 20 minutes to conduct the uptake reaction. Immediately after the incubation, the plates were washed 4 times with HBSS (Sigma-Aldrich, H8264-1L) using the ELx405 Microplate Washer (Biotek) to terminate the uptake reaction. After the washes, 50 uL/well Ultima Gold Scintillation Cocktail (Perkin Elmer, 6013326) was added to each well using the Viaflo 384 (Integra). The plates were then incubated (humidified, 37° C. with 5% CO2) on a plate shaker at 200 rpm for 2 hours. After incubation, the plates were removed from the shaker and kept at room temperature for 15 minutes.
Liquid scintillation analysis was performed using the MicroBeta2 Microplate Counter (Perkin Elmer). Activity (%) was derived by normalizing the average of positive control compound treated wells to 0% and the average of DMSO (negative control) wells to 100%. Collaborative Drug Discovery software was used for graphing data.

The target of assay [2] is T1, human SLC6A19. In words: Example B2: 13C6,15N-isoleucine uptake, RapidFire mass spectrometry, in CHO cells with doxycycline-inducible expression of human SLC6A19 and TMEM27. As to conditions: read-out: SLC6A19_RapidFire Uptake Assay IC50. It is filed as cell-based. Put shortly: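 CHO cells were induced with doxycycline to express human SLC6A19 with TMEM27, then pre-incubated 20 min at 37 °C with compounds (2-fold, 10-point, duplicate). Uptake of 13C6,15N-isoleucine (2 mM solution added) over a further 20 min was measured by RapidFire mass spectrometry, using 13C-leucine as internal standard.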

For orientation: IC50 means the point on the concentration scale where inhibition reaches its midpoint.

Molecules are shown by their SMILES. Some results are limits rather than exact numbers.

For `CN(C(=O)NCc1cc2cc(Cl)ccc2[nH]1)[C@@H]1CCCN(C(=O)Cc2ccno2)C1` [Compound 194, (R)-3-((5-chloro-1H-indol-2-yl)methyl)-1-(1-(2-(isoxazol-5-yl)acetyl)piperidin-3-yl)-1-methylurea], the IC50 in assay [1] is 197 nM; in assay [2], 242 nM.

As to `CC(=O)N1CCC[C@@H](N(CC(F)(F)F)C(=O)NCc2cc3cc(Cl)ccc3[nH]2)C1` [Compound 195, (R)-1-(1-acetylpiperidin-3-yl)-3-((5-chloro-1H-indol-2-yl)methyl)-1-(2,2,2-trifluoroethyl)urea], the IC50 came to 102 nM in assay [1] and 62 nM in assay [2].

Regarding `CN(C(=O)NCc1cc2cc(Cl)ccc2[nH]1)[C@@H]1CCCN(C(=O)c2ccccc2O)C1` [Compound 196, (R)-3-((5-chloro-1H-indol-2-yl)methyl)-1-(1-(2-hydroxybenzoyl)piperidin-3-yl)-1-methylurea], the 50% inhibitory concentration (IC50) in assay [1] is 640 nM; in assay [2], 518 nM.

Regarding `CN(C(=O)NCc1cc2cc(Cl)ccc2[nH]1)[C@@H]1CCCN(C(=O)Cc2ccn(C)n2)C1` [Compound 197, (R)-3-((5-chloro-1H-indol-2-yl)methyl)-1-methyl-1-(1-(2-(1-methyl-1H-pyrazol-3-yl)acetyl)piperidin-3-yl)urea], the IC50 in assay [1] is 219 nM; in assay [2], 396 nM.

As to `CN(C(=O)NCc1cc2cc(Cl)ccc2[nH]1)[C@@H]1CCCN(C(=O)c2ccn(CC(F)(F)F)n2)C1` [Compound 198, (R)-3-((5-chloro-1H-indol-2-yl)methyl)-1-methyl-1-(1-(1-(2,2,2-trifluoroethyl)-1H-pyrazole-3-carbonyl)piperidin-3-yl)urea], the figures for the 50% inhibitory concentration (IC50) in assay [1] and in assay [2] were 232 nM and 163 nM, respectively.

As for `CN(C(=O)NCc1cc2cc(Cl)ccc2[nH]1)[C@@H]1CCCN(C(=O)Cc2cn[nH]c2)C1` [Compound 199, (R)-1-(1-(2-(1H-pyrazol-4-yl)acetyl)piperidin-3-yl)-3-((5-chloro-1H-indol-2-yl)methyl)-1-methylurea], the results for the IC50 in assay [1] and in assay [2] were 434 nM and 582 nM, respectively.

Take `Cc1nc(C(=O)N2CCC[C@@H](N(C)C(=O)NCc3cc4cc(Cl)ccc4[nH]3)C2)co1` [Compound 200, (R)-3-((5-chloro-1H-indol-2-yl)methyl)-1-methyl-1-(1-(2-methyloxazole-4-carbonyl)piperidin-3-yl)urea]: the IC50 in assay [1] is 350 nM; in assay [2] it was 512 nM.

Consider `CN(C(=O)NCc1cc2cc(Cl)ccc2[nH]1)[C@@H]1CCCN(C(=O)Cc2ccon2)C1` [Compound 201, (R)-3-((5-chloro-1H-indol-2-yl)methyl)-1-(1-(2-(isoxazol-3-yl)acetyl)piperidin-3-yl)-1-methylurea], for which the IC50 in assay [1] turned out to be 205 nM; in assay [2] it was 227 nM.

For `CN(C(=O)NCc1cc2cc(Cl)ccc2[nH]1)[C@@H]1CCCN(C(=O)Cc2cocn2)C1` [Compound 202, (R)-3-((5-chloro-1H-indol-2-yl)methyl)-1-methyl-1-(1-(2-(oxazol-4-yl)acetyl)piperidin-3-yl)urea], the IC50 in assay [1] was 168 nM; in assay [2] it was 689 nM.

`CN(C(=O)NCc1cc2cc(Cl)ccc2[nH]1)[C@@H]1CCCN(C(=O)Cc2ncco2)C1` [Compound 204, (R)-3-((5-chloro-1H-indol-2-yl)methyl)-1-methyl-1-(1-(2-(oxazol-2-yl)acetyl)piperidin-3-yl)urea]: the IC50 in assay [1] was found to be 256 nM; in assay [2], 763 nM.

Regarding `CCc1ccc2[nH]c(CNC(=O)N(C)[C@@H]3CCCN(C(C)=O)C3)cc2c1` [Compound 217, (R)-1-(1-acetylpiperidin-3-yl)-3-((5-ethyl-1H-indol-2-yl)methyl)-1-methylurea], the IC50 is 574 nM in assay [1] and 738 nM in assay [2].

With `CC(=O)N1CCC[C@@H](N(C)C(=O)NCc2cc3cc(C)ccc3[nH]2)C1` [Compound 218, (R)-1-(1-acetylpiperidin-3-yl)-1-methyl-3-((5-methyl-1H-indol-2-yl)methyl)urea], the IC50 in assay [1] came to 273 nM; in assay [2] it was 647 nM.

Take `CCc1ccc2cc(CNC(=O)N(C)[C@@H]3CCCN(C(C)=O)C3)[nH]c2c1` [Compound 219, (R)-1-(1-acetylpiperidin-3-yl)-3-((6-ethyl-1H-indol-2-yl)methyl)-1-methylurea]: the figures for the IC50 in assay [1] and in assay [2] were over 10000 nM and 12900 nM, respectively.

On to `CC(=O)N1CCC[C@@H](N(C)C(=O)NCc2cc3cc(C4CC4)ccc3[nH]2)C1` [Compound 220, (R)-1-(1-acetylpiperidin-3-yl)-3-((5-cyclopropyl-1H-indol-2-yl)methyl)-1-methylurea], for which the half-maximal inhibitory concentration (IC50) in assay [1] stood at 794 nM; in assay [2], 953 nM.

In the case of `CC(=O)N1CCC[C@@H](N(C(=O)NCc2cc3cc(Cl)ccc3[nH]2)C(C)C)C1` [Compound 221, (R)-1-(1-acetylpiperidin-3-yl)-3-((5-chloro-1H-indol-2-yl)methyl)-1-isopropylurea], the IC50 in assay [1] was determined as 2410 nM; in assay [2] it was 4610 nM.

As to `CC(=O)N1CCC[C@@H](N(C(=O)NCc2cc3cc(Cl)ccc3[nH]2)C2CC2)C1` [Compound 222, (R)-1-(1-acetylpiperidin-3-yl)-3-((5-chloro-1H-indol-2-yl)methyl)-1-cyclopropylurea], the figures for the IC50 in assay [1] and in assay [2] were 193 nM and 63.3 nM, respectively.

For the molecule `CCN(C(=O)NCc1cc2cc(Cl)ccc2[nH]1)[C@@H]1CCCN(C(=O)C2CCC2)C1` [Compound 232, (R)-3-((5-chloro-1H-indol-2-yl)methyl)-1-(1-(cyclobutanecarbonyl)piperidin-3-yl)-1-ethylurea], the figures for the IC50 in assay [1] and in assay [2] were 230 nM and 45.3 nM, respectively.

Consider `CC(=O)N1CCC[C@@H](N(C)C(=O)NCc2cc3[nH]cc(C)c3cc2C)C1` [Compound 233, (R)-1-(1-acetylpiperidin-3-yl)-3-((3,5-dimethyl-1H-indol-6-yl)methyl)-1-methylurea], for which the values for the half-maximal inhibitory concentration (IC50) in assay [1] and in assay [2] were 15600 nM and 9120 nM, respectively.

The values above are taken from patent US20260184693A1, “INHIBITORS OF SOLUTE CARRIER FAMILY 6A MEMBER 19 (SLC6A19) AND METHODS OF USE THEREOF” (Maze Therapeutics, Inc., priority 2022, published 2026).
